IC50 and Kd data for 23 compounds are collected here from ChEMBL document CHEMBL1156118, “Evaluation of substituted 6-arylquinazolin-4-amines as potent and selective inhibitors of cdc2-like kinases (Clk)” (Bioorg Med Chem Lett, 2009).

Assay [1] addresses T1, Dual specificity protein kinase CLK4 (Homo sapiens, UniProt Q9HAZ1). Briefly: Inhibition of Clk4.
Assay [2] has as its target Dual specificity protein kinase CLK2 (Homo sapiens, UniProt P49760). Briefly: Binding affinity to Clk2 assessed as dissociation constant.
Assay [3] concerns the target Dual specificity protein kinase CLK3 (Homo sapiens, UniProt P49761). The assay can be described thus: Binding affinity to Clk3 assessed as dissociation constant.
The target of assay [4] is T1, Dual specificity protein kinase CLK4. Briefly: Binding affinity to Clk4 assessed as dissociation constant.
Assay [5] addresses Dual specificity tyrosine-phosphorylation-regulated kinase 1A (Homo sapiens, UniProt Q13627). The assay can be described thus: Binding affinity to Dyrk1A assessed as dissociation constant.
Assay [6] addresses Dual specificity tyrosine-phosphorylation-regulated kinase 1B (Homo sapiens, UniProt Q9Y463). Briefly: Binding affinity to Dyrk1B assessed as dissociation constant.
Assay [7] concerns the target Dual specificity protein kinase CLK1 (Homo sapiens, UniProt P49759). The assay can be described thus: Binding affinity to Clk1 assessed as dissociation constant.
The target in assay [8] is Epidermal growth factor receptor (Homo sapiens, UniProt P00533). The assay can be described thus: Binding affinity to EGFR assessed as dissociation constant.
Epidermal growth factor receptor, sequence (P00533 whole entry): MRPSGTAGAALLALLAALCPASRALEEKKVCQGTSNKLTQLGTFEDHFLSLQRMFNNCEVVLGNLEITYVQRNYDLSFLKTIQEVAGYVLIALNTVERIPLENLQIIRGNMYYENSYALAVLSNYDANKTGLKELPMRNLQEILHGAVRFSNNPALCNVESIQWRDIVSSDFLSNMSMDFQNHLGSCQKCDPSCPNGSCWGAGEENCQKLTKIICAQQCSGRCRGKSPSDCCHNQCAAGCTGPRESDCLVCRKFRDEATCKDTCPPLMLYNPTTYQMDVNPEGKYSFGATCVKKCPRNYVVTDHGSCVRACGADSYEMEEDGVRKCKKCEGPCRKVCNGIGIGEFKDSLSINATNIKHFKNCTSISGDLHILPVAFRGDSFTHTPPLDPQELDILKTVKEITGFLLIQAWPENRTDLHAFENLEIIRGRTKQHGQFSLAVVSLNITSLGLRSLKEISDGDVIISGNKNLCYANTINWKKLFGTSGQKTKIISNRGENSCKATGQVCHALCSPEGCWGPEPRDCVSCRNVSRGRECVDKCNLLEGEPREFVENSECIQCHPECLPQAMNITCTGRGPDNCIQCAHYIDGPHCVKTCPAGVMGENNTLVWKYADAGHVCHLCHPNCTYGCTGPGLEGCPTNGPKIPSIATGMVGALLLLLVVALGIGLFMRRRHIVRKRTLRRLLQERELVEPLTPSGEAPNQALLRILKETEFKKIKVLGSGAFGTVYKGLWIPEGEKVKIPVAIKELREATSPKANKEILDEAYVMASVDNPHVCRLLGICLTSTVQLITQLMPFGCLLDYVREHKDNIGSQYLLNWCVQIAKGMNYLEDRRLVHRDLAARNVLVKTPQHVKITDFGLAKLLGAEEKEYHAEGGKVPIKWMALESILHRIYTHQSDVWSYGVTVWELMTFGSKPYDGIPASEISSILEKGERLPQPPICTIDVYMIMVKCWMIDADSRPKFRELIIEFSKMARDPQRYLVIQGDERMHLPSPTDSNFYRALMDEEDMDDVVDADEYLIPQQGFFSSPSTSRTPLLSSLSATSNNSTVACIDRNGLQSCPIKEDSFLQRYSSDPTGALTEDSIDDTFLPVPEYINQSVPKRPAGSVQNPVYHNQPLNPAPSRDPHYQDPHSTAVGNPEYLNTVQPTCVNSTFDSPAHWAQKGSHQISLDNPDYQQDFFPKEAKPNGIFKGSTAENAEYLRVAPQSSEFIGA

T1 sequence (Q9HAZ1 whole entry): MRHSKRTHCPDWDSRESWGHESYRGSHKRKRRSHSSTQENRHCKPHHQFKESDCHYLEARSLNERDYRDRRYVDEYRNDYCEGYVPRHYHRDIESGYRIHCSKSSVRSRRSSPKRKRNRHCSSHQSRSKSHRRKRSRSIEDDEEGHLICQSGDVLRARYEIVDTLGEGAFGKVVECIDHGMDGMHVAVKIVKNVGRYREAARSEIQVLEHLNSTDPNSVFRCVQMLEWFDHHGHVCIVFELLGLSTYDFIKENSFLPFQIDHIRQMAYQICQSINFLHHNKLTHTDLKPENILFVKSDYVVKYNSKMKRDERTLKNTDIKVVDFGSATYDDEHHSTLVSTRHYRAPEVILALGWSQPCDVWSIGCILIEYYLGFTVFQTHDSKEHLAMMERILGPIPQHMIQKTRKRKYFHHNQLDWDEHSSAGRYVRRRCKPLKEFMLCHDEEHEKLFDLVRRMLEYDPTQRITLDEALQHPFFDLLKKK
Dual specificity protein kinase CLK1, sequence (P49759 whole entry): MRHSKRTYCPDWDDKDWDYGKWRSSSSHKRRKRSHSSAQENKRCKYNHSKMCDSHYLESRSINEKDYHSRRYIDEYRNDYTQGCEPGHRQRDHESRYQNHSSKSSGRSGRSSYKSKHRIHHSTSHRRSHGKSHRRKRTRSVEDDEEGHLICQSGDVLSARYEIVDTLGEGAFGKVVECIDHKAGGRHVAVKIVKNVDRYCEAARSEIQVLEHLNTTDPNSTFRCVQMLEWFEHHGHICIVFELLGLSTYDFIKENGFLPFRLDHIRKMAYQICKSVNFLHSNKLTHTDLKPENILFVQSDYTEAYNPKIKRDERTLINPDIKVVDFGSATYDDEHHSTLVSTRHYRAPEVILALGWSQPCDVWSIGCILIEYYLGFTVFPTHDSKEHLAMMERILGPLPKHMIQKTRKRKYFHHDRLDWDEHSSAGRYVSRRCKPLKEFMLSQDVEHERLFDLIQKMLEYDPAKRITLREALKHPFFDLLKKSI
Dual specificity protein kinase CLK3, sequence (P49761 whole entry): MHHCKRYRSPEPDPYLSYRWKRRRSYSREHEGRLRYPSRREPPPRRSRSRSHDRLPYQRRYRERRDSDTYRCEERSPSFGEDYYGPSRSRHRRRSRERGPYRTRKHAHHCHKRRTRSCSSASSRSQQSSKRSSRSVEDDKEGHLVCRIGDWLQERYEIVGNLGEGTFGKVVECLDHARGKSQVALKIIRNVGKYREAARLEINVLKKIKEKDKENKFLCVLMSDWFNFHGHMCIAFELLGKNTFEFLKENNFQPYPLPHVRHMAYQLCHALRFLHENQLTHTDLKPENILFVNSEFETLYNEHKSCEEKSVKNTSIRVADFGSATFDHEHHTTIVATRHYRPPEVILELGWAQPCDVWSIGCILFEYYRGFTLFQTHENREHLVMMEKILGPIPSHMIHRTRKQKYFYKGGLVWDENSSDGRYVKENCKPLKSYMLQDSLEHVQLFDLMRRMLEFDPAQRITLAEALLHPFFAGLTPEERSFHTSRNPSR
Dual specificity protein kinase CLK2, sequence (P49760 whole entry): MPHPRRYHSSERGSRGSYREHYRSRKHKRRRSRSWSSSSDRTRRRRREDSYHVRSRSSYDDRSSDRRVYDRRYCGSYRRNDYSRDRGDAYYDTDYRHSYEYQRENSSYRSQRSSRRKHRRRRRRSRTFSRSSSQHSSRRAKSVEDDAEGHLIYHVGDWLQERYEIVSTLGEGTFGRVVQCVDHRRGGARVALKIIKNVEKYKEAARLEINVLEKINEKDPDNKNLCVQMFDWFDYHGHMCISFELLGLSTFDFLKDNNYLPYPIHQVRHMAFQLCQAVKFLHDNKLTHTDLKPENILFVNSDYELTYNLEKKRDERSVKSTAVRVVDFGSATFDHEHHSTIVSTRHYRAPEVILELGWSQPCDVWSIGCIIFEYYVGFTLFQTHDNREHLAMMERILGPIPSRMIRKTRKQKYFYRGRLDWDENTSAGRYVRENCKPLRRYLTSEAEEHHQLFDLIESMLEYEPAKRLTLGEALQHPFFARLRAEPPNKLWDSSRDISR
Dual specificity tyrosine-phosphorylation-regulated kinase 1B, sequence (Q9Y463 whole entry): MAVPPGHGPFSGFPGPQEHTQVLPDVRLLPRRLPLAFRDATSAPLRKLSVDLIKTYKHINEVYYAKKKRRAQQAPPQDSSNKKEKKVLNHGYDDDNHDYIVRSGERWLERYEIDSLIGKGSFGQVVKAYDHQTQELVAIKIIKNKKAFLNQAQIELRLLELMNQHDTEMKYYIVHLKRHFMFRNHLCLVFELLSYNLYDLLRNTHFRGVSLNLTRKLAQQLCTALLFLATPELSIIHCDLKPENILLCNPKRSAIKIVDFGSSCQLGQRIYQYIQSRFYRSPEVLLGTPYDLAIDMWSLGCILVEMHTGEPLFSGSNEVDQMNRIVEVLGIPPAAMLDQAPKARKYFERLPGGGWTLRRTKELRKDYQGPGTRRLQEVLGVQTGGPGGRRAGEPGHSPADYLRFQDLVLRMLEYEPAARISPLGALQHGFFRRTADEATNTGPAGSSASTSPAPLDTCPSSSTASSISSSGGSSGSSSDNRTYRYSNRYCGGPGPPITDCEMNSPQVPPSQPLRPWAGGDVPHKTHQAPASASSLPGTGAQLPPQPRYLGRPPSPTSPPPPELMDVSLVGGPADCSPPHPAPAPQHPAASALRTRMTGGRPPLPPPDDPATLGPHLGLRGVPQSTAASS

Compound `COc1cccc(-c2ccc3ncnc(NCc4cccs4)c3c2)c1` came in with an IC50 in assay [1] of 891 nM.

Consider `Cc1cccc(CNc2ncnc3ccc(-c4ccc5c(c4)OCO5)cc23)c1`, for which the IC50 in assay [1] is 126 nM.

Consider `Cc1csc(CNc2ncnc3ccc(-c4ccc5c(c4)OCO5)cc23)c1`, for which the IC50 in assay [1] is 178 nM.

`c1coc(-c2ccc3ncnc(NCc4cccs4)c3c2)c1` gave an IC50 in assay [1] of 250 nM.

`Cc1cccc(CNc2ncnc3ccc(-c4ccc5c(c4)OCCO5)cc23)c1` displayed an IC50 in assay [1] of 631 nM.

For `Cc1noc(C)c1-c1ccc2ncnc(NCc3cccc(F)c3)c2c1`, the IC50 in assay [1] is 178 nM.

Take `COc1cccc(-c2ccc3ncnc(NCc4cccc(C)c4)c3c2)c1`: in assay [1], it took 1120 nM to reach half-maximal inhibition (IC50).

With `COc1cccc(-c2ccc3ncnc(NCc4cc(C)cs4)c3c2)c1`, the IC50 in assay [1] stood at 1000 nM.

On to `c1cncc(CNc2ncnc3ccc(-c4ccc5c(c4)OCO5)cc23)c1`, for which, in assay [1], inhibition was half-maximal at 100 nM (IC50).

On to `Fc1cccc(CNc2ncnc3ccc(-c4ccc5c(c4)OCO5)cc23)c1`, for which inhibition in assay [1] was half-maximal at 126 nM (IC50).

In assay [1], `COc1cccc(-c2ccc3ncnc(NCc4cccnc4)c3c2)c1` displayed an IC50 of 3550 nM.

In assay [1], `c1nc(NCc2ccoc2)c2cc(-c3ccc4c(c3)OCO4)ccc2n1` yielded an IC50 of 63 nM.

`Fc1cccc(CNc2ncnc3ccc(-c4ccco4)cc23)c1` showed an IC50 in assay [1] of 141 nM.

Consider `c1csc(CNc2ncnc3ccc(-c4ccc5c(c4)OCO5)cc23)c1`, for which the Kd came out at 680 nM in assay [2]; 470 nM in assay [3]; 50 nM in assay [4]; 27 nM in assay [5]; 430 nM in assay [6]; 37 nM in assay [7]. Further, the Kd in assay [8] came to 230 nM. This compound yielded an IC50 in assay [1] of 63 nM.

With `c1cncc(CNc2ncnc3ccc(-c4ccco4)cc23)c1`, the IC50 in assay [1] turned out to be 794 nM.

In turn, `COc1cccc(-c2ccc3ncnc(NCc4cccc(F)c4)c3c2)c1` showed an IC50 in assay [1] of 708 nM.

Compound `Cc1noc(C)c1-c1ccc2ncnc(NCc3cccs3)c2c1` yielded an IC50 in assay [1] of 158 nM.

Consider `c1cncc(CNc2ncnc3ccc(-c4ccc5c(c4)OCCO5)cc23)c1`, for which, in assay [1], the IC50 stood at 447 nM.

As for `Cc1csc(CNc2ncnc3ccc(-c4ccc5c(c4)OCCO5)cc23)c1`, 501 nM corresponded to half-maximal inhibition in assay [1] (IC50).

`Cc1cccc(CNc2ncnc3ccc(-c4ccco4)cc23)c1` had a 50% inhibitory concentration (IC50) in assay [1] of 224 nM.

Regarding `c1coc(-c2ccc3ncnc(NCc4ccoc4)c3c2)c1`, the midpoint of inhibition in assay [1], the IC50, lay at 111 nM.

For `COc1cccc(-c2ccc3ncnc(NCc4ccoc4)c3c2)c1`, in assay [1], the IC50 was 1000 nM.

As to `Cc1csc(CNc2ncnc3ccc(-c4c(C)noc4C)cc23)c1`, in assay [1], the IC50 came to 501 nM.
